Experimental findings from patent US20090023753A1, “1,3-Thiazole-5-Carboxamides Useful as Cancer Chemotherapeutic Agents” (Bayer HealthCare AG, priority 2005, published 2009) are described below.

Assay [1] has as its system phospho-ERK in MDA-MB-231 cells. Description: Phospho-ERK Cytoblot Assay with MDA-MB 231 cells. Format: cell-based. As to conditions: Homo sapiens, 1 hour compound incubation, phospho-p44/42 MAP kinase (Thr202/Tyr204). The source says: The utility of the compounds of the present invention can also be illustrated, for example, by their activity in the phosph-ERK Assay described below. Growth-factor induction of the RAS/MEK/ERK signaling pathway leads to the induction of phosphorylation of a number of proteins including phospho-ERK (See C. J. Marshall, MAP kinase kinase kinase, MAP kinase kinase and MAP kinase, Current Opinions in Genetic Development, 1994, 4: p. 82-89). The importance of this pathway in cancer biology has been recognized in the art. Activation of the RAS signaling pathway is an important mechanism by which cancer develops (R. Herrera, et al, Unraveling the complexities of the Raf/MAP kinase pathway for pharmacological intervention, Trends Mol. Med., 2002, 8: p. S27-31). Mutational activation of RAS or downstream effectors as well as growth factor induction of this pathway leads to increased tumor cell proliferation and survival (A. A. Adjei, Blocking oncogenic RAS signaling for cancer therapy, J. Natl. Cancer Inst., 2001, 93(14): p. 1062-1074; J Schlessinger, Cell signaling by receptor tyrosine kinases, Cell, 2000, 103: p. 211-225). Phospho-ERK Cytoblot Assay Protocol with MDA-MB 231 Cells MDA-MB-231 cells in log phase were plated at 25,000 cells/well in 96-well opaque plates (Falcon, USA Cat # 353296) in 100 μL RPMI medium containing 10% (w/v) FBS, and incubated overnight at 37° C. in 5% CO2 incubator. The following day, the growth medium was removed from the plate by aspiration and replaced with RPMI medium containing 0.1% BSA and example compounds diluted to generate final concentrations of 0.0, 0.001, 0.003, 0.01, 0.03, 0.1, 0.3, 1 and 3 μM. Cells were incubated with compound for 1 hour at 37° C. in a 5% CO2 incubator. The media was then removed from the plate by aspiration and the cells were washed once with 180 μL/well cold Tris Buffered Saline (TBS). After removal of the wash buffer, the cells were fixed by adding 180 μL of cold 3.7% (v/v) formaldehyde in TBS to each well for 1 hour at 4° C. After removal of the formaldehyde, the cells were treated with the addition of 60 μL of −20° C. methanol to each well for 5 minutes at 4° C. The methanol was removed and the cells were washed with 180 μL/well of 5% (w/v) BSA in TBS. To block non-specific antibody binding sites, each well was treated with 180 μL/well 5% BSA (w/v) in TBS for thirty minutes at room temperature. After removal of the blocking buffer, 50 μL of an anti-phospho-p44/42 MAP kinase (Thr202/Tyr204) rabbit polyclonal antibody (Cell Signaling, USA Cat # 9101) was added to each well at a dilution of 1:1000 in 5% (w/v) BSA in TBS, and the plate was incubated at 4° C. overnight. Plates were then washed three times with 300 μL/well TBS at room temperature. The plates were then incubated with 50 μL of Horseradish peroxidase (HRP)-conjugated goat-anti-rabbit antibody (Amersham, USA Cat. # NA934V) at a dilution of 1:1000 in 5% BSA-TBS at room temperature for 1 hr. After washing the plate three times with 300 μL/well TBS, 60 μL of Enhanced Chemiluminescence (ECL) reagent (Amersham, USA Cat# RPN2209) was added to each well and incubated at room temperature for five minutes. The plate was then read on a Perkin Elmer Victor 5 Multilabel Counter (#1420-0421). […] The utility of the compounds of the present invention can also be illustrated, for example, by their activity in the flk-1 (murine VEGFR2) Assay described below. The VEGF-VEGFR2 signaling pathway has been extensively characterized as an important regulator of angiogenesis and tumor angiogeneisis (See G. Yancopoulos et al, Vascular-specific growth factors and blood vessel formation, Nature, 2000, 407: p. 242-248; D. Shweiki et al, Induction of vascular endothelial growth factor expression by hypoxia and by glucose deficiency in multi cell spheroids: Implications for tumor angiogenesis, Proc. Natl. Acad. Sci, 1995, 92: p. 768-772). Inhibition of tumor cell growth by blocking this pathway has been well documented in the art. […]

For assay [2], the target named is T1, Flk-1 (murine VEGFR-2) kinase domain (Mus musculus, UniProt P35918).
T1 construct: 7 nM Flk-1 (kinase domain)
Briefly: Flk-1 (murine VEGFR-2) Biochemical Assay (TR-FRET). Particulars: 10 μM ATP, 7 nM Flk-1 (kinase domain). On the technique in general: TR-FRET usually uses a lanthanide donor and a delayed reading to cut background.

The subject of assay [3] is P-AKT/PKB in H209 small cell lung carcinoma cells. Briefly: P-AKT/PKB Cytoblot Assay with H209 cells (SCF-stimulated). As to conditions: Homo sapiens, NCI-H209, 1 hour compound incubation, SCF 25 ng/mL for 5 minutes, p-(S473) AKT. Format: cell-based. The text has this: The utility of the compounds of the present invention can be illustrated, for example, by their activity in the P-AKT/PKB Cytoblot Assay described below. The involvement of the P-AKT/PKB[PI3K/AKt] pathway as a target for cancer chemotherapy has been recognized in the art. For example, see F. Chang et al, Involvement of PI3K/Akt pathway in cell cycle progression, apoptosis, and neoplastic transformation: a target for cancer chemotherapy, Leukemia, 2003, 17: p. 590-603; K. A. West et al, Activation of the PI3K/Akt pathway and chemotherapeutic resistance, Drug Resistance Updates, 2002, 5: p. 234-248; and P. Sen et al, Involvement of the Akt/PKB signaling pathway with disease processes, Molecular and Cellular Biochemistry, 2003, 253: p. 241-246.
P-AKT/PKB Cytoblot Assay Protocol with H209 Cells
H209 small cell lung carcinoma cells in log phase were plated at 50,000 cells/well in 96-well poly-lysine coated, clear bottom/black-sided plates (Becton-Dickinson, USA Cat # 354640) in 100 Ill RPMI medium containing 0.1% (w/v) BSA, and incubated overnight at 37° C. in 5% CO2 incubator. The following day, compounds (10 mM stock solutions in DMSO) were added to the plates to generate final concentrations of 0.0, 0.01, 0.03, 0.1, 0.3, 1.0, 3.0 and 10 μM for IC50 determinations and incubated for 1 hour at 37° C. Cells were then left untreated or stimulated with Stem Cell Factor (SCF: Biosource Cat # PHC2116) at a final concentration of 25 ng/mL for 5 minutes at 37° C. in 5% CO2 incubator. The media was then removed using a vacuum manifold and the cells were washed once with Tris Buffered Saline (TBS). Cells were then fixed by adding 200 μl of cold 3.7% (v/v) formaldehyde in TBS to each well for 15 minutes at 4° C. After removal of the formaldehyde, the cells were treated with the addition of 50 μl of methanol (at −20° C.) to each well for 5 minutes. After removal of the methanol, 200 μl of 1% (w/v) BSA in TBS was added to each well to block non-specific antibody binding sites and the plate was incubated at room temperature for 30 minutes.
After removal of the blocking buffer, 50 μl of p-(S473) AKT rabbit polyclonal antibody (Cell Signaling, USA Cat # 9277S) was added at a dilution of 1:250 in 0.1% (w/v) BSA in TBS, and the plate was incubated at room temperature for 1 hour. Plates were then washed 3 times with cold TBS containing 0.05% (v/v) Tween 20 (TBS-T) and 100 μl of Horseradish peroxidase (HRP)-conjugated goat-anti-rabbit antibody (Amersham, USA Cat # NA934V) at a dilution of 1:250 in TBS-T was added and the plate was incubated at room temperature for 1 h. After washing with ice-cold TBS-T four times, 100 μl of Enhanced Chemiluminescence (ECL) reagent (Amersham, USA Cat# RPN2209) was added to each well and mixed on a mini-orbital shaker for 1 min. The plate was then read on a Perkin Elmer Victor 5 Multilabel Counter (#1420-0421).

T1 sequence (P35918 832-1160 limits assumed): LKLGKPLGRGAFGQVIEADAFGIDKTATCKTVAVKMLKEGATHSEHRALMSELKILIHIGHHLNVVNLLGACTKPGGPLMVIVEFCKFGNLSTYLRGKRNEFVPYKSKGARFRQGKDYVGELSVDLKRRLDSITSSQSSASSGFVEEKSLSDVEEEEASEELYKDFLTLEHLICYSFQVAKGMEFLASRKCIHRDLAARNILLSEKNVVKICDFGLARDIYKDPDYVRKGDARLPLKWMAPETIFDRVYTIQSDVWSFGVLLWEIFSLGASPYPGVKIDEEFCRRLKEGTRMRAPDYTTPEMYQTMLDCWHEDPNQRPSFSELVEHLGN

Usually IC50 stands for the concentration that inhibits the measured activity by half. With `CNC(=O)Nc1cc(CNc2ncsc2C(=O)Nc2ccc3c(c2)OC(F)(F)O3)ccn1` [Example 18, N-(2,2-difluoro-1,3-benzodioxol-5-yl)-4-{[(2-{[(methylamino)carbonyl]amino}pyridin-4-yl)methyl]amino}-1,3-thiazole-5-carboxamide], the IC50 in assay [1] was under 3000 nM; in assay [2] it was under 500 nM; in assay [3] it was under 500 nM.

In the case of `COCC(=O)Nc1cc(CNc2ncsc2C(=O)Nc2ccc3c(c2)OC(F)(F)O3)ccn1` [Example 7, N-(2,2-difluoro-1,3-benzodioxol-5-yl)-4-[([2-[(methoxyacetyl)amino]pyridin-4-yl]methyl)amino]-1,3-thiazole-5-carboxamide], the IC50 in assay [1] is under 3000 nM; in assay [2], under 500 nM; in assay [3], under 500 nM.

In the case of `CNC(=O)c1cc(CNc2ncsc2C(=O)Nc2ccc3c(c2)OC(F)(F)C(F)(F)O3)ccn1` [Example 2, N-methyl-4-{[(5-{[(2,2,3,3-tetrafluoro-2,3-dihydro-1,4-benzodioxin-6-yl)amino]carbonyl}-1,3-thiazol-4-yl)amino]methyl}pyridine-2-carboxamide], the IC50 in assay [1] was under 3000 nM; in assay [2] it was under 500 nM; in assay [3], under 500 nM.

`CC(=O)Nc1cc(CNc2ncsc2C(=O)Nc2ccc3c(c2)OC(F)(F)C(F)(F)O3)ccn1` [Example 11, 4-({[2-(acetylamino)pyridin-4-yl]methyl}amino)-N-(2,2,3,3-tetrafluoro-2,3-dihydro-1,4-benzodioxin-6-yl)-1,3-thiazole-5-carboxamide]: the IC50 in assay [1] was under 3000 nM; in assay [2], under 500 nM; in assay [3] it was under 500 nM.

For `CC(=O)Nc1cc(CNc2ncsc2C(=O)Nc2ccc3c(c2)OC(F)(F)O3)ccn1` [Example 10, 4-([{2-(acetylamino)pyridin-4-yl]methyl}amino)-N-(2,2-difluoro-1,3-benzodioxol-5-yl)-1,3-thiazole-5-carboxamide], the IC50 in assay [1] was under 3000 nM; in assay [2] it was under 500 nM; in assay [3], under 500 nM.

With `COCC(=O)Nc1cc(CNc2ncsc2C(=O)Nc2ccc3c(c2)OC(F)(F)C(F)(F)O3)ccn1` [Example 8, 4-[({2-[(methoxyacetyl)amino]pyridin-4-yl}methyl)amino]-N-(2,2,3,3-tetrafluoro-2,3-dihydro-1,4-benzodioxin-6-yl)-1,3-thiazole-5-carboxamide], the IC50 in assay [1] was under 3000 nM; in assay [2], under 500 nM; in assay [3] it was under 500 nM.

In the case of `COCCOCC(=O)Nc1cc(CNc2ncsc2C(=O)Nc2ccc3c(c2)OC(F)(F)C(F)(F)O3)ccn1` [Example 9, 4-{[(2-{[(2-methoxyethoxy)acetyl]amino}pyridin-4-yl)methyl]amino}-N-(2,2,3,3-tetrafluoro-2,3-dihydro-1,4-benzodioxin-6-yl)-1,3-thiazole-5-carboxamide], the concentration for half-maximal inhibition (IC50) was under 3000 nM in assay [1], under 500 nM in assay [2] and under 500 nM in assay [3].
